Assay results reported in patent US12077503B2, “Substituted cyclic amides and their use as herbicides” (FMC CORPORATION, priority 2015, dated 2024).

What was measured:
Type in all cases: in vivo
[1] = system: Galium (catchweed bedstraw, Galium aparine); test: Test A postemergence; conditions: postemergence
Summary of the method: (§1)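 Treatment is preemergence as a directed soil spray after planting, or postemergence at the one- to two-leaf stage, with test chemical in a non-phytotoxic solvent mixture plus surfactant. Plants stay in the greenhouse about 10 d before visual injury scoring on a 0 to 100 scale versus untreated controls.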

[2] = system: Kochia (Kochia scoparia); test: Test A postemergence; conditions: postemergence
Summary of the method: as §1

[3] = system: blackgrass (Alopecurus myosuroides); test: Test A postemergence; conditions: postemergence
Summary of the method: as §1

[4] = system: corn (Zea mays); test: Test A postemergence; conditions: postemergence
Summary of the method: as §1

[5] = system: wheat (Triticum aestivum); test: Test A postemergence; conditions: postemergence
Summary of the method: as §1

[6] = system: barnyardgrass (Echinochloa crus-galli); test: Test A postemergence; conditions: postemergence
Summary of the method: as §1

[7] = system: pigweed (Amaranthus retroflexus); test: Test A postemergence; conditions: postemergence
Summary of the method: as §1

[8] = system: ryegrass, Italian (Italian ryegrass, Lolium multiflorum); test: Test A postemergence; conditions: postemergence
Summary of the method: as §1

[9] = system: ragweed (common ragweed, Ambrosia elatior); test: Test A postemergence; conditions: postemergence
Summary of the method: as §1

[10] = system: giant foxtail (Setaria faberii); test: Test A postemergence; conditions: postemergence
Summary of the method: as §1

[11] = system: Kochia (Kochia scoparia); test: Test A preemergence
Summary of the method: as §1

[12] = system: barnyardgrass (Echinochloa crus-galli); test: Test A preemergence
Summary of the method: as §1

[13] = system: pigweed (Amaranthus retroflexus); test: Test A preemergence
[14] = system: ryegrass, Italian (Italian ryegrass, Lolium multiflorum); test: Test A preemergence
Summary of the method: as §1

[15] = system: ragweed (common ragweed, Ambrosia elatior); test: Test A preemergence
Summary of the method: as §1

[16] = system: giant foxtail (Setaria faberii); test: Test A preemergence
Summary of the method: as §1

[17] = system: lambsquarters (Chenopodium album); test: Test C preemergence; conditions: for Plant response rating, Lambsquarters: scale 0 to 100, 0 no effect, 100 complete control
Summary of the method: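 After treatment with surfactant-containing formulations, either preemergence to seeds in loam-sand soil or postemergence to potted seedlings at 2–18 cm, plants were kept 13–15 d in a greenhouse. Observers then compared them with controls and assigned ratings, 0 signifying no effect and 100 complete control.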

[18] = system: sedge, umbrella (small-flower umbrella sedge, Cyperus difformis); test: Test B flooded paddy test; conditions: Flood, 250 g ai/ha; 0 to 100 scale where 0 is no effect and 100 is complete control; 13 to 15 d
Summary of the method: (§2)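 Rating scale 0–100 (visual, vs untreated controls) after a 13–15 d greenhouse period; application to the flood layer, 3 cm above soil and maintained; plants at 2-leaf stage when treated.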

[19] = system: rice (Oryra sativa); test: Test B flooded paddy test; conditions: Flood, 250 g ai/ha; 0 to 100 scale where 0 is no effect and 100 is complete control; 13 to 15 d
Summary of the method: as §2

[20] = system: ducksalad (Heteranthera limosa); test: Test B flooded paddy test; conditions: Flood, 250 g ai/ha; 0 to 100 scale where 0 is no effect and 100 is complete control; 13 to 15 d
Summary of the method: as §2

[21] = system: barnyardgrass (Echinochloa crus-galli); test: Test B flooded paddy test; conditions: Flood, 250 g ai/ha; 0 to 100 scale where 0 is no effect and 100 is complete control; 13 to 15 d
Summary of the method: as §2

[22] = 125 g ai/ha, visual injury rating on 0 to 100 scale (0 no effect, 100 complete control), approx. 10 d
[23] = 500 g ai/ha, 0 to 100 scale, 0 no effect, 100 complete control
[24] = 125 g ai/ha, preemergence, 0 to 100 scale (0 no effect, 100 complete control)
[25] = Preemergence, 500 g ai/ha, visual injury approx. 10 d
[26] = 125 g ai/ha, visual rating after approx. 10 d, 0 to 100 scale (0 no effect, 100 complete control)
[27] = 500 g ai/ha, visual injury, 0 to 100 scale (0 no effect, 100 complete control), approx. 10 d
[28] = 125 g ai/ha, Preemergence, visual injury after approximately 10 d, 0 to 100 scale where 0 is no effect and 100 is complete control
[29] = 500 g ai/ha, preemergence, 0 to 100 scale, 0 = no effect, 100 = complete control

For `CN1CC(c2ccc(C(F)(F)F)cc2)C(C(=S)Nc2ccccc2F)C1=O` (centres unmarked) [Compound 450], the “Galium plant response rating” value [1, 22] was 50, the “Plant response rating, Galium” value [1, 23] was 60 and the “Kochia plant response rating” value [2, 22] was 20. For the same compound, the “Plant response rating, Kochia” value [2, 23] was 50, the “Blackgrass plant response rating” value [3, 22] was 20 and the “Plant response rating, Blackgrass” value [3, 23] was 40. The “Corn plant response rating” value [4, 22] was 20, the “Plant response rating, Corn” value [4, 23] was 60 and the “Wheat plant response rating” value [5, 22] was 0. The “Plant response rating, Wheat” value [5, 23] was 30, the “Barnyardgrass plant response rating” value [6, 22] was 80 and the “Plant response rating, Barnyardgrass” value [6, 23] was 90. For the same compound, the “Pigweed plant response rating” value [7, 22] was 50, the “Plant response rating, Pigweed” value [7, 23] was 60 and the “Ryegrass, Italian plant response rating” value [8, 22] was 0. The “Plant response rating, Ryegrass, Italian” value [8, 23] was 50, the “Ragweed plant response rating” value [9, 22] was 20 and the “Plant response rating, Ragweed” value [9, 23] was 30. The “Foxtail, Giant plant response rating” value [10, 22] was 80, the “Plant response rating, Foxtail, Giant” value [10, 23] was 80 and the “Plant response rating, Kochia” value [11, 24] was 50. For the same compound, the “Kochia plant response rating (0 to 100 scale, 0 is no effect, 100 is complete control)” value [11, 25] was 80, the “Plant response rating, Barnyardgrass” value [12, 24] was 90 and the “Barnyardgrass plant response rating (0 to 100 scale, 0 is no effect, 100 is complete control)” value [12, 25] was 90. For the same compound, the “Plant response rating, Pigweed” value [13, 24] was 70, the “Pigweed plant response rating (0 to 100 scale, 0 is no effect, 100 is complete control)” value [13, 25] was 80 and the “Plant response rating, Ryegrass, Italian” value [14, 24] was 0. For the same compound, the “Ryegrass, Italian plant response rating (0 to 100 scale, 0 is no effect, 100 is complete control)” value [14, 25] was 40, the “Plant response rating, Ragweed” value [15, 24] was 20 and the “Ragweed plant response rating (0 to 100 scale, 0 is no effect, 100 is complete control)” value [15, 25] was 70. For the same compound, the “Plant response rating, Foxtail, Giant” value [16, 24] was 90, the “Foxtail, Giant plant response rating (0 to 100 scale, 0 is no effect, 100 is complete control)” value [16, 25] was 90 and the “Plant response rating, Lambsquarters” value ([17]; 31 g ai/ha) was 55. For the same compound, the “Plant response rating, Lambsquarters” value ([17]; 62 g ai/ha) was 50, the “Plant response rating, Lambsquarters” value ([17]; 125 g ai/ha) was 65 and the “Plant response rating, Lambsquarters” value ([17]; 250 g ai/ha) was 65. For the same compound, the “Plant response rating, Sedge, Umbrella” value [18] was 0, the “Plant response rating, Rice” value [19] was 0 and the “Plant response rating, Ducksalad” value [20] was 75. The “Plant response rating, Barnyardgrass” value [21] was 45.
For `Cc1cccc(C2CN(C)C(=O)C2C(=O)Nc2cccc(F)c2F)c1` (centres unmarked) [Compound 667], the “Plant response rating, Galium” value [1, 26] was 50, the “Plant response rating, Galium” value [1, 27] was 50 and the “Plant response rating, Kochia” value [2, 26] was 50. For the same compound, the “Plant response rating, Kochia” value [2, 27] was 60, the “Plant response rating, Blackgrass” value [3, 26] was 60 and the “Plant response rating, Blackgrass” value [3, 27] was 70. The “Plant response rating, Corn” value [4, 26] was 70, the “Plant response rating, Corn” value [4, 27] was 80 and the “Plant response rating, Wheat” value [5, 26] was 40. For the same compound, the “Plant response rating, Wheat” value [5, 27] was 70, the “Plant response rating, Barnyardgrass” value [6, 26] was 90 and the “Plant response rating, Barnyardgrass” value [6, 27] was 90. The “Plant response rating, Pigweed” value [7, 26] was 0, the “Plant response rating, Pigweed” value [7, 27] was 0 and the “Plant response rating, Ryegrass, Italian” value [8, 26] was 60. For the same compound, the “Plant response rating, Ryegrass, Italian” value [8, 27] was 80, the “Plant response rating, Ragweed” value [9, 26] was 0 and the “Plant response rating, Ragweed” value [9, 27] was 50. The “Plant response rating, Foxtail, Giant” value [10, 26] was 90, the “Plant response rating, Foxtail, Giant” value [10, 27] was 90 and the “Plant response rating, Kochia” value [11, 28] was 40. For the same compound, the “Plant response rating, Kochia” value [11, 29] was 70, the “Plant response rating, Barnyardgrass” value [12, 28] was 90 and the “Plant response rating, Barnyardgrass” value [12, 29] was 90. For the same compound, the “Plant response rating, Pigweed” value [13, 28] was 20, the “Plant response rating, Pigweed” value [13, 29] was 50 and the “Plant response rating, Ryegrass, Italian” value [14, 28] was 80. The “Plant response rating, Ryegrass, Italian” value [14, 29] was 90, the “Plant response rating, Ragweed” value [15, 28] was 60 and the “Plant response rating, Ragweed” value [15, 29] was 70. The “Plant response rating, Foxtail, Giant” value [16, 28] was 90, the “Plant response rating, Foxtail, Giant” value [16, 29] was 100 and the “Plant response rating (scale of 0 to 100), Lambsquarters” value ([17]; 31 g ai/ha, 0 is no effect, 100 is complete control) was 50. The “Plant response rating, Lambsquarters” value ([17]; 62 g ai/ha) was 70, the “Plant response rating, Lambsquarters” value ([17]; 125 g ai/ha) was 90 and the “Plant response rating, Lambsquarters” value ([17]; 250 g ai/ha) was 100. For the same compound, the “Plant response rating, Sedge, Umbrella” value [18] was 0, the “Plant response rating, Rice” value [19] was 10 and the “Plant response rating, Ducksalad” value [20] was 90. The “Plant response rating, Barnyardgrass” value [21] was 75.
